Assay results as given in article PMC11396129, “Oxindole–benzothiazole hybrids as CDK2 inhibitors and anticancer agents: design, synthesis and biological evaluation” (BMC Chemistry, 2024).

Columns and labels:
Assay type in all cases: cell-based, human
[1] = tested on: HCT-15; experiment: NCI 60 panel growth inhibition (SRB), colon cancer; conditions: HCT-15, 10 μM
How it was run: (§1)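 SRB absorbance read-out; growth computed as [(Ti−Tz)/(C−Tz)]×100 when Ti≥Tz, else [(Ti−Tz)/Tz]×100. TGI taken where Ti = Tz. Five drug concentrations per line, seeding 5000–40,000 cells/well, time-zero fixation at 24 h.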

[2] = tested on: COLO 205; experiment: NCI 60 panel growth inhibition (SRB), colon cancer; conditions: COLO 205, 10 μM
How it was run: as §1

[3] = tested on: HT29; experiment: NCI 60 panel growth inhibition (SRB), colon cancer; conditions: HT29, 10 μM
How it was run: as §1

[4] = tested on: RPMI-8226; experiment: NCI 60 panel growth inhibition (SRB), leukemia; conditions: RPMI-8226, 10 μM
Protocol: (§2) Screening of cytotoxic activity against a panel of sixty human tumor cell lines The selected compounds by NCI were evaluated for their anticancer activity in a two- stage process. […] Then, the output from the single dose screen is reported as a mean graph. […] Assay protocol. […] For a typical screening experiment, cells are inoculated into 96 well microtiter plates in 100 µL at plating densities ranging from 5000 to 40,000 cells/well depending on the doubling time of individual cell lines. […] After 24 h, two plates of each cell line are fixed in situ with TCA, to represent a measurement of the cell population for each cell line at the time of drug addition (Tz). The experimental drugs are solubilized in dimethyl sulfoxide at 400-fold the desired final maximum test concentration and stored frozen prior to use. At the time of drug addition, an aliquot of frozen concentrate is thawed and diluted to twice the desired final maximum test concentration with complete medium containing 50 µg/mL gentamicin. Additional four, 10-fold or ½ log serial dilutions are made to provide a total of five drug concentrations plus control. […] For adherent cells, the assay is terminated by the addition of cold TCA. […] The supernatant is discarded, and the plates are washed five times with tap water and air dried. […] Using the seven absorbance measurements [time zero, (Tz), control growth, (C), and test growth in the presence of drug at the five concentration levels (Ti)], the percentage growth is calculated at each of the drug concentrations levels. Percentage growth inhibition is calculated as: [(Ti Tz)/(C–Tz)] x 100 for concentrations for which Ti>/=Tz and [(Ti-Tz)/Tz] x 100 for concentrations for which Ti < Tz. Three dose response parameters are calculated for each experimental agent. […] The drug concentration resulting in total growth inhibition (TGI) is calculated from Ti = Tz. […] Values are calculated for each of these three parameters if the level of activity is reached; however, if the effect is not reached or is exceeded, the value for that parameter is expressed as greater or less than the maximum or minimum concentration tested.

[5] = tested on: K-562; experiment: NCI 60 panel growth inhibition (SRB), leukemia; conditions: K-562, 10 μM
Protocol: as §2

[6] = tested on: SR; experiment: NCI 60 panel growth inhibition (SRB), leukemia; conditions: 10 μM
Protocol: as §2

[7] = tested on: HL-60(TB); experiment: NCI 60 panel growth inhibition (SRB), leukemia; conditions: HL-60(TB), 10 μM
Protocol: as §2

[8] = tested on: MOLT-4; experiment: NCI 60 panel growth inhibition (SRB), leukemia; conditions: MOLT-4, 10 μM
Protocol: as §2

[9] = tested on: CCRF-CEM; experiment: NCI 60 panel growth inhibition (SRB), leukemia; conditions: 10 μM
Protocol: as §2

[10] = tested on: DU-145; experiment: NCI 60 panel growth inhibition (SRB), prostate cancer; conditions: DU-145, 10 μM
Protocol: as §2

[11] = tested on: ACHN; experiment: NCI 60 panel growth inhibition (SRB), renal cancer; conditions: 10 μM
Protocol: as §2

[12] = tested on: CAKI-1; experiment: NCI 60 panel growth inhibition (SRB), renal cancer; conditions: CAKI-1, 10 μM
Protocol: as §2

[13] = tested on: 786-0; experiment: NCI 60 panel growth inhibition (SRB), renal cancer; conditions: 786-0, 10 μM
Protocol: as §2

[14] = tested on: RXF 393; experiment: NCI 60 panel growth inhibition (SRB), renal cancer; conditions: RXF 393, 10 μM
Protocol: as §2

[15] = tested on: TK-10; experiment: NCI 60 panel growth inhibition (SRB), renal cancer; conditions: TK-10, 10 μM
Protocol: as §2

[16] = tested on: SN12C; experiment: NCI 60 panel growth inhibition (SRB), renal cancer; conditions: 10 μM
Protocol: as §2

[17] = tested on: UO-31; experiment: NCI 60 panel growth inhibition (SRB), renal cancer; conditions: UO-31, 10 μM
Protocol: as §2

[18] = tested on: A498; experiment: NCI 60 panel growth inhibition (SRB), renal cancer; conditions: A498, 10 μM
Protocol: as §2

[19] = tested on: MDA-MB-435; experiment: NCI 60 panel growth inhibition (SRB), melanoma; conditions: MDA-MB-435, 10 μM
Protocol: as §2

[20] = tested on: SK-MEL-5; experiment: NCI 60 panel growth inhibition (SRB), melanoma; conditions: SK-MEL-5, 10 μM
Protocol: as §2

[21] = tested on: M14; experiment: NCI 60 panel growth inhibition (SRB), melanoma; conditions: M14, 10 μM
Protocol: as §2

[22] = tested on: SK-MEL-28; experiment: NCI 60 panel growth inhibition (SRB), melanoma; conditions: SK-MEL-28, 10 μM
Protocol: as §2

[23] = tested on: UACC-62; experiment: NCI 60 panel growth inhibition (SRB), melanoma; conditions: UACC-62, 10 μM
Protocol: as §2

[24] = tested on: LOX IMVI; experiment: NCI 60 panel growth inhibition (SRB), melanoma; conditions: 10 μM
Protocol: as §2

[25] = tested on: UACC-257; experiment: NCI 60 panel growth inhibition (SRB), melanoma; conditions: UACC-257, 10 μM
Protocol: as §2

[26] = tested on: SK-MEL-2; experiment: NCI 60 panel growth inhibition (SRB), melanoma; conditions: SK-MEL-2, 10 μM
Protocol: as §2

[27] = tested on: PC-3; experiment: NCI 60 panel growth inhibition (SRB), prostate cancer; conditions: PC-3, 10 μM
Protocol: as §2

[28] = tested on: MALME-3M; experiment: NCI 60 panel growth inhibition (SRB), melanoma; conditions: 10 μM
Protocol: as §2

SMILES | GI% [1] | GI% [3] | GI% [4] | GI% [5] | GI% [6] | GI% [7] | GI% [8] | GI% [9] | GI% [10] | GI% [11] | GI% [12] | GI% [14] | GI% [15] | GI% [16] | GI% [17] | GI% [18] | GI% [19] | GI% [20] | GI% [21] | GI% [22] | other results
COc1cccc(-c2nc3ccccc3s2)c1OCC(=O)NN=C1C(=O)Nc2ccc(Cl)cc21 [Compound 9k, 2-(2-(Benzo[d]thiazol-2-yl)-6-methoxyphenoxy)-N′-(5-chloro-2-oxoindolin-3-ylidene)acetohydrazide] | 31.91% | 14.83% | 29.96% | 29.20% | 17.83% | 6.09% | 43.70% | 24.47% | – (GI% < 5%) | 26.60% | 39.78% | 37.81% | – (GI% < 5%) | 14.00% | 33.24% | – (GI% < 5%) | – (GI% < 5%) | 23.55% | – (GI% < 5%) | – (GI% < 5%) | GI% [2]: – (GI% < 5%); GI% [13]: 22.12%; GI% [23]: 32.61%; GI% [24]: 13.16%; GI% [25]: – (GI% < 5%); GI% [26]: 12.78%
COc1ccc(-c2nc3ccccc3s2)cc1OCC(=O)NN=C1C(=O)Nc2ccccc21 [Compound 9m, 2-(5-(Benzo[d]thiazol-2-yl)-2-methoxyphenoxy)-N′-(2-oxoindolin-3-ylidene) acetohydrazide] | 10.77% | – (GI% < 5%) | 25.46% | 11.23% | 12.20% | – (GI% < 5%) | 23.70% | 40.05% | 5.42% | 19.82% | 9.28% | – (GI% < 5%) | 10.32% | 7.15% | – (GI% < 5%) | – (GI% < 5%) | – (GI% < 5%) | – (GI% < 5%) | – (GI% < 5%) | – (GI% < 5%) | GI% [27]: 7.63%; GI% [28]: – (GI% < 5%); GI% [23]: – (GI% < 5%); GI% [24]: 18.28%; GI% [25]: – (GI% < 5%); GI% [26]: – (GI% < 5%)
COc1ccc(-c2nc3ccccc3s2)cc1OCC(=O)NN=C1C(=O)Nc2ccc([N+](=O)[O-])cc21 [Compound 9p, 2-(5-(Benzo[d]thiazol-2-yl)-2-methoxyphenoxy)-N′-(5-nitro-2-oxoindolin-3-ylidene)acetohydrazide] | – (GI% < 5%) | – (GI% < 5%) | – (GI% < 5%) | – (GI% < 5%) | – (GI% < 5%) | – (GI% < 5%) | – (GI% < 5%) | 9.28% | – (GI% < 5%) | 76.97% | 45.22% | 99.84% | 96.63% | 37.68% | 19.08% | 20.06% | – (GI% < 5%) | 5.61% | – (GI% < 5%) | – (GI% < 5%) | GI% [27]: 11.94%; GI% [13]: 87.35%; GI% [28]: 8.36%; GI% [23]: 19.19%; GI% [24]: 13.12%; GI% [25]: – (GI% < 5%); GI% [26]: 115.65%
COc1ccc(-c2nc3ccccc3s2)cc1OCC(=O)NN=C1C(=O)Nc2ccc(Cl)cc21 [Compound 9q, 2-(5-(Benzo[d]thiazol-2-yl)-2-methoxyphenoxy)-N′-(5-chloro-2-oxoindolin-3-ylidene)acetohydrazide] | 36.40% | 6.74% | 46.48% | 50.00% | 18.57% | – (GI% < 5%) | 71.36% | 81.35% | 19.41% | 59.32% | 50.03% | 32.76% | 62.99% | 36.67% | 20.65% | – (GI% < 5%) | 37.37% | 12.80% | 23.59% | – (GI% < 5%) | GI% [27]: 26.21%; GI% [13]: 44.24%; GI% [28]: 26.21%; GI% [23]: 12.95%; GI% [24]: 72.29%; GI% [25]: – (GI% < 5%); GI% [26]: 56.54%
COc1ccc(-c2nc3ccccc3s2)cc1OCC(=O)NN=C1C(=O)Nc2ccc(Br)cc21 [Compound 9r, 2-(5-(Benzo[d]thiazol-2-yl)-2-methoxyphenoxy)-N′-(5-bromo-2-oxoindolin-3-ylidene)acetohydrazide] | – (GI% < 5%) | – (GI% < 5%) | 19.17% | 24.52% | – (GI% < 5%) | – (GI% < 5%) | 13.12% | 42.87% | – (GI% < 5%) | 30.78% | 29.61% | 15.08% | 36.32% | 20.61% | 15.64% | – (GI% < 5%) | – (GI% < 5%) | – (GI% < 5%) | 9.47% | – (GI% < 5%) | GI% [27]: 16.13%; GI% [13]: 20.37%; GI% [28]: 11.71%; GI% [23]: – (GI% < 5%); GI% [24]: 38.27%; GI% [25]: – (GI% < 5%); GI% [26]: 17.63%
CNC(=O)c1nn(C)c2c1C(C)(C)Cc1cnc(Nc3ccc(N4CCN(C)CC4)cc3)nc1-2 [Milciclib, reference compound] | 96.9% | 116.2% | 99.60% | 94.6% | 101.8% | 127.0% | 97.70% | 89.60% | 84.50% | 90.4% | 92.30% | 148.20% | 112.5% | 88.70% | 108.7% | 161.60% | 78.9% | 92.70% | 87.5% | 83.80% | GI% [2]: 180.1%; GI% [27]: 92.10%; GI% [13]: 87.70%; GI% [28]: 108.70%; GI% [23]: 109.5%; GI% [24]: 94.70%; GI% [25]: 114.80%
